Measured values: patent US20250064941A1, “SIGLEC LIGANDS, CONJUGATES, AND METHODS OF USE THEREOF” (Osprey Biopharmaceuticals, Inc., priority 2023, published 2025)

Experiments:
[1] = molecular target: T1, mouse Siglec-2-Fc-Avi (CD22) (Mus musculus, UniProt P35329); assay: SPR binding affinity to mouse CD22; settings: steady-state analysis
T1 construct: made in house
T1 sequence (P35329 22-708 limits assumed): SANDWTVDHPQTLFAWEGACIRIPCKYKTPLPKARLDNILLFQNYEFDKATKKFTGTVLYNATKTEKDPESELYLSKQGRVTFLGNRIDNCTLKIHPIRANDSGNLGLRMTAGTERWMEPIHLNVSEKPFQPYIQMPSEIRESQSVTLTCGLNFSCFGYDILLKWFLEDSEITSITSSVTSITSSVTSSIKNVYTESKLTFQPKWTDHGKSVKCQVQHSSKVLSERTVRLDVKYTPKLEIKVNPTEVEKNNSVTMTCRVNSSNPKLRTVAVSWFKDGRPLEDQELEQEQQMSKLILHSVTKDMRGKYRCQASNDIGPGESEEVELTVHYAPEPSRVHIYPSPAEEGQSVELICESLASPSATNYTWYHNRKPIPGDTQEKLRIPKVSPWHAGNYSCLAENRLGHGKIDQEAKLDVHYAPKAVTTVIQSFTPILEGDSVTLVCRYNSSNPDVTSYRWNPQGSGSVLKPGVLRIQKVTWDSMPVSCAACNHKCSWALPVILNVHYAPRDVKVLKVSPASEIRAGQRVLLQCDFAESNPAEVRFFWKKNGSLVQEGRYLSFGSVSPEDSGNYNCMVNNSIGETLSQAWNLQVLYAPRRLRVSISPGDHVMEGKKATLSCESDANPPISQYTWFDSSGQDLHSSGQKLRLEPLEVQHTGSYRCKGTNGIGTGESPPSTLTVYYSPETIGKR
Method in brief: (§1)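 Steady-state fits gave the affinities. Before capture on a streptavidin surface, biotinylated CD22 had native sialic acids stripped (SialoExo, 4 hours, 37° C.). Running buffer: 10 mM HEPES pH 7.5, 150 mM NaCl, 0.05% Tween-20, 1% DMSO, with DMSO solvent correction.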

cynomolgus Siglec-2/CD22 = cynomolgus Siglec-2/CD22 (Macaca fascicularis, UniProt A0A2K5WCZ6); assay: biochemical; assay type: binding; settings: SPR, steady-state analysis; read-out: Affinity cyno CD22
Method in brief: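 Compound binding measured by steady-state SPR analysis, 120 s dissociation, in HEPES-NaCl-Tween buffer pH 7.5 containing 1% DMSO, DMSO solvent-corrected. Surface: cyno CD22, sialic acids first stripped by SialoExo for 4 h at 37° C., then amine-coupled onto CM5.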

[2] = molecular target: T2, human Siglec-2/CD22 protein (Homo sapiens, UniProt P20273); assay: SPR binding affinity to human CD22; settings: steady-state analysis
T2 construct: purchased Acro Biosystems SI2-H82E3
T2 sequence (P20273 20-847): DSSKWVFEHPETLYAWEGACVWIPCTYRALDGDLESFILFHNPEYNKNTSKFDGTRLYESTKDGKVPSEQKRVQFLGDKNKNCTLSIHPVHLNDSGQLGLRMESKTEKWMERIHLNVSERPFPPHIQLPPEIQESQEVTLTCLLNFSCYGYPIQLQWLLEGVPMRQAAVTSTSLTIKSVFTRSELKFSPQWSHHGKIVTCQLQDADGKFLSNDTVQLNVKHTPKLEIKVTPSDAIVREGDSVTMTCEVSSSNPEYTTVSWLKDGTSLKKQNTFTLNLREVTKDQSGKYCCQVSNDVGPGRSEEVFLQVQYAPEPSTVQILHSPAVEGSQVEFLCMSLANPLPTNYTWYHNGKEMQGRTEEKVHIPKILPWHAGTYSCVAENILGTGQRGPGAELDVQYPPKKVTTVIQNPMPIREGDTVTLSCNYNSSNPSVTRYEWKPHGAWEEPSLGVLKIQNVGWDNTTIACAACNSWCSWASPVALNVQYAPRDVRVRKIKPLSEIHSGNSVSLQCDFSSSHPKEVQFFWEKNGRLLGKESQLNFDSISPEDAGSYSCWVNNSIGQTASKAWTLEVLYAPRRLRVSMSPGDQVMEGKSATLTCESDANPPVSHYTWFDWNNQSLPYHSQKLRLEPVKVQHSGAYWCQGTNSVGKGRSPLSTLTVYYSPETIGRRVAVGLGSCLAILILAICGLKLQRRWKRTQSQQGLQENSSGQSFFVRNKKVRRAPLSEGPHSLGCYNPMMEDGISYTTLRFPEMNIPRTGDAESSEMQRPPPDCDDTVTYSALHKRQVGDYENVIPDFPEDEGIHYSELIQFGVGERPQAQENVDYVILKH
Method in brief: as §1

Sequence of cynomolgus Siglec-2/CD22 (A0A2K5WCZ6 entry or part of it): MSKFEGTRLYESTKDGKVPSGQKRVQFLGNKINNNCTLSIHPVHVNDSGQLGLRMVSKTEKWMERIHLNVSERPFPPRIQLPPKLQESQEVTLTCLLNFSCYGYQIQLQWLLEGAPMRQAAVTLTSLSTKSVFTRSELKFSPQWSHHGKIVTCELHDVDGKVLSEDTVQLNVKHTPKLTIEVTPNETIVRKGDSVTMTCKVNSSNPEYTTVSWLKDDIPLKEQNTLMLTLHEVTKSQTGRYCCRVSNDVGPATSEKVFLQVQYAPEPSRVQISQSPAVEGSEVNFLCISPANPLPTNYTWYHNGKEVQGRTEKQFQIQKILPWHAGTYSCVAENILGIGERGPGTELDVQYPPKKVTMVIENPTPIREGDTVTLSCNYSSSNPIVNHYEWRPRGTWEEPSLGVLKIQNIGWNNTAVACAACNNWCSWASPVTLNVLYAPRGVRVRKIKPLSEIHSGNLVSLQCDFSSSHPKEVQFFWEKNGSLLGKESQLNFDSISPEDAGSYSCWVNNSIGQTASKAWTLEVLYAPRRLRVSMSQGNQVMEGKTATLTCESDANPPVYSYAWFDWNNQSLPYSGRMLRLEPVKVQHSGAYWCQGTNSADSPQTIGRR

Row | Compound | Kd [1] [µM] | Kd (cynomolgus Siglec-2/CD22) [µM] | Kd [2] [µM]
1 | C#CCCOc1ccc(CO[C@]2(C(=O)O)C[C@H](O)[C@@H](NC(=O)CO)[C@H]([C@H](O)[C@H](O)CNC(=O)Cc3ccc4cn[nH]c4c3)O2)cc1 [Compound 10, (2R,4S,5R,6R)-6-((1R,2R)-3-(2-(1H-indazol-6-yl)acetamido)-1,2-dihydroxypropyl)-2-((4-(but-3-yn-1-yloxy)benzyl)oxy)-4-hydroxy-5-(2-hydroxyacetamido)tetrahydro-2H-pyran-2-carboxylic acid] | 1 to 10 | 1 to 10 | 1 to 10
2 | C#CCOCCOCCO[C@]1(C(=O)O)C[C@H](O)[C@@H](NC(=O)CO)[C@H]([C@H](O)[C@H](O)CNC(=O)Cc2ccc(-c3cccnc3)cc2)O1 [Compound 82, (2R,4S,5R,6R)-6-((1R,2R)-1,2-dihydroxy-3-(2-(4-(pyridin-3-yl)phenyl)acetamido)propyl)-4-hydroxy-5-(2-hydroxyacetamido)-2-(2-(2-(prop-2-yn-1-yloxy)ethoxy)ethoxy)tetrahydro-2H-pyran-2-carboxylic acid] | > 10 | > 10 | 1 to 10
3 | O=C(O)CCCCCCO[C@]1(C(=O)O)C[C@H](O)[C@@H](NC(=O)CO)[C@H]([C@H](O)[C@H](O)CNC(=O)Cc2cccc(O)c2)O1 [Compound 143, (2R,4S,5R,6R)-2-((6-carboxyhexyl)oxy)-6-((1R,2R)-1,2-dihydroxy-3-(2-(3-hydroxyphenyl)acetamido)propyl)-4-hydroxy-5-(2-hydroxyacetamido)tetrahydro-2H-pyran-2-carboxylic acid] | 1 to 10 | < 1 | < 1
4 | C#CCCOc1ccc(CO[C@]2(C(=O)O)C[C@H](O)[C@@H](NC(=O)CO)[C@H]([C@H](O)[C@H](O)CNC(=O)Cc3ccc(Cl)c(O)c3)O2)cc1 [Compound 135, (2R,4S,5R,6R)-2-((4-(but-3-yn-1-yloxy)benzyl)oxy)-6-((1R,2R)-3-(2-(4-chloro-3-hydroxyphenyl)acetamido)-1,2-dihydroxypropyl)-4-hydroxy-5-(2-hydroxyacetamido)tetrahydro-2H-pyran-2-carboxylic acid] | < 1 | < 1 | < 1
5 | C#CCC(NC(=O)CCCO[C@]1(C(=O)O)C[C@H](O)[C@@H](NC(=O)CO)[C@H]([C@H](O)[C@H](O)CNC(=O)Cc2ccc(Cl)cc2)O1)C(=O)O (stereo partly drawn) [Compound 102, (2R,4S,5R,6R)-2-(4-((1-carboxybut-3-yn-1-yl)amino)-4-oxobutoxy)-6-((1R,2R)-3-(2-(4-chlorophenyl)acetamido)-1,2-dihydroxypropyl)-4-hydroxy-5-(2-hydroxyacetamido)tetrahydro-2H-pyran-2-carboxylic acid] | 1 to 10 | 1 to 10 | 1 to 10
6 | C#CCOCCOCCNc1c(NCCCCCCO[C@]2(C(=O)O)C[C@H](O)[C@@H](NC(=O)CO)[C@H]([C@H](O)[C@H](O)CNC(=O)c3cccc(Cl)c3)O2)c(=O)c1=O [Compound 227, (2R,4S,5R,6R)-6-((1R,2R)-3-(3-chlorobenzamido)-1,2-dihydroxypropyl)-2-((6-((3,4-dioxo-2-((2-(2-(prop-2-yn-1-yloxy)ethoxy)ethyl)amino)cyclobut-1-en-1-yl)amino)hexyl)oxy)-4-hydroxy-5-(2-hydroxyacetamido)tetrahydro-2H-pyran-2-carboxylic acid] | 1 to 10 | < 1 | < 1
7 | C#CCOCCOCCO[C@]1(C(=O)O)C[C@H](O)[C@@H](NC(=O)CO)[C@H]([C@H](O)[C@H](O)CNC(=O)Cc2ccc3c(c2)CC(=O)N3)O1 [Compound 11, (2R,4S,5R,6R)-6-((1R,2R)-1,2-dihydroxy-3-(2-(2-oxoindolin-5-yl)acetamido)propyl)-4-hydroxy-5-(2-hydroxyacetamido)-2-(2-(2-(prop-2-yn-1-yloxy)ethoxy)ethoxy)tetrahydro-2H-pyran-2-carboxylic acid] | > 10 | > 10 | 1 to 10
8 | CC(=O)NCCOCCOCCOCCOCCC(=O)NCCOCCOCCO[C@]1(C(=O)O)C[C@H](O)[C@@H](NC(=O)CO)[C@H]([C@H](O)[C@H](O)CNC(=O)Cc2ccc(Cl)cc2)O1 [Compound 237, (2R,4S,5R,6R)-6-((1R,2R)-3-(2-(4-chlorophenyl)acetamido)-1,2-dihydroxypropyl)-2-((2,18-dioxo-6,9,12,15,22,25-hexaoxa-3,19-diazaheptacosan-27-yl)oxy)-4-hydroxy-5-(2-hydroxyacetamido) tetrahydro-2H-pyran-2-carboxylic acid] | 1 to 10 | 1 to 10 | 1 to 10
9 | C#CCOCCOCCO[C@]1(C(=O)O)C[C@H](O)[C@@H](NC(=O)CO)[C@H]([C@H](O)[C@H](O)CNC(=O)Cc2ccc3[nH]ccc3c2)O1 [Compound 196, (2R,4S,5R,6R)-6-((1R,2R)-3-(2-(1H-indol-5-yl)acetamido)-1,2-dihydroxypropyl)-4-hydroxy-5-(2-hydroxyacetamido)-2-(2-(2-(prop-2-yn-1-yloxy)ethoxy)ethoxy)tetrahydro-2H-pyran-2-carboxylic acid] | 1 to 10 | < 1 | < 1
10 | C#CCOCCCCCCO[C@]1(C(=O)O)C[C@H](O)[C@@H](NC(=O)N(C)C)[C@H]([C@H](O)[C@H](O)CNC(=O)Cc2ccc(Cl)cc2)O1 [Compound 85, (2R,4S,5R,6R)-6-((1R,2R)-3-(2-(4-chlorophenyl)acetamido)-1,2-dihydroxypropyl)-5-(3,3-dimethylureido)-4-hydroxy-2-((6-(prop-2-yn-1-yloxy)hexyl)oxy)tetrahydro-2H-pyran-2-carboxylic acid] | 1 to 10 | < 1 | < 1
11 | C#CCCOc1ccc(CO[C@]2(C(=O)O)C[C@H](O)[C@@H](NC(=O)CO)[C@H]([C@H](O)[C@H](O)CNC(=O)C(F)(F)c3ccccc3)O2)cc1 [Compound 172, (2R,4S,5R,6R)-2-((4-(but-3-yn-1-yloxy)benzyl)oxy)-6-((1R,2R)-3-(2,2-difluoro-2-phenylacetamido)-1,2-dihydroxypropyl)-4-hydroxy-5-(2-hydroxyacetamido)tetrahydro-2H-pyran-2-carboxylic acid] | 1 to 10 | 1 to 10 | 1 to 10
12 | C#CCOCCOCCO[C@]1(C(=O)O)C[C@H](O)[C@@H](NC(=O)CO)[C@H]([C@H](O)[C@H](O)CNC(=O)Cc2cccc(O)c2)O1 [Compound 152, (2R,4S,5R,6R)-6-((1R,2R)-1,2-dihydroxy-3-(2-(3-hydroxyphenyl)acetamido)propyl)-4-hydroxy-5-(2-hydroxyacetamido)-2-(2-(2-(prop-2-yn-1-yloxy)ethoxy)ethoxy)tetrahydro-2H-pyran-2-carboxylic acid] | < 1 | 1 to 10 | 1 to 10
13 | C#CCOCCOCCO[C@]1(C(=O)O)C[C@H](O)[C@@H](NC(=O)CO)[C@H]([C@H](O)[C@H](O)CNC(=O)Cc2ccc(-c3ccccc3)nc2)O1 [Compound 79, (2R,4S,5R,6R)-6-((1R,2R)-1,2-dihydroxy-3-(2-(6-phenylpyridin-3-yl)acetamido)propyl)-4-hydroxy-5-(2-hydroxyacetamido)-2-(2-(2-(prop-2-yn-1-yloxy)ethoxy)ethoxy)tetrahydro-2H-pyran-2-carboxylic acid] | > 10 | > 10 | 1 to 10
